According to patent US12054497B2, “Substituted heterocyclic fused cyclic compound, preparation method therefor and pharmaceutical use thereof” (GENFLEET THERAPEUTICS (SHANGHAI) INC., priority 2019, dated 2024):
pIC50: −log10 of the molar value. Like-named read-outs stand apart in the source and are kept apart here.

Legend:
[1] = Pharmacokinetic evaluation on mice, intragastric (PO) administration (Test Example 6); assay type: in vivo; conditions: mouse, plasma, PO 15 mg/kg, male CD-1 mice; for bioavailability: read-out: F (bioavailability); for Cmax: read-out: Cmax; for Tmax: read-out: Tmax
Method: Experimental objective: male CD-1 mice were chosen as tested animals, and the LC-MS-MS method was employed to measure the concentrations of a tested compound in blood plasma of a mouse intravenously and intragastrically administrated with the tested compound at different times. The pharmacokinetic behaviors of tested compounds in mice were studied, and the pharmacokinetic characteristics thereof were evaluated.
Experimental scheme: experimental animals: 18 healthy adult male CD-1 mice (6 to 8 weeks old, and body weight about 30 g) were divided into 6 groups according to the principle of similar body weights: 3 mice in each of IV groups (3 groups), and 3 mice in each of PO groups (3 groups). The animals were purchased from Shanghai Jihui Laboratory Animal Care Co., Ltd.
Formulation: IV group: taking 10 mL of sample solution for example, 4 mg of sample was weighed, orderly added with 0.5 mL of DMSO and […], then added with […] of HP-p-CD, finally added with water to a constant volume of 10 mL, and stirred and subjected to ultrasonic irradiation, thereby obtaining a 0.4 mg/mL clear solution. PO group: an appropriate amount of sample was weighed, orderly added with appropriate amounts of Labrasol and water in a volume ratio of 10:40, and stirred and subjected to ultrasonic irradiation, thereby obtaining a 1.5 mg/mL uniform solution.
Administration: after being deprived of food for one night, the IV groups were intravenously administrated with the formulated solutions, respectively, with an injection volume of 5 mL/kg and a dosage of 2 mg/kg. The PO groups were intragastrically administrated with the formulated solutions, respectively, with an injection volume of […] and a dosage of 15 mg/kg.
Experimental operations: after the intravenous injection groups and the intragastric administration groups of the male CD-1 mice were administrated with the tested compounds, 110 ul of blood was sampled at the following time points: 0.0833, 0.25, 0.5, 1, 2, 4, 6, 8, and 24 hours. The sampled blood was placed into an anticoagulant tube which was added with K2EDTA in advance and preserved in dry ice. The tube was centrifuged for 15 minutes to separate blood plasma, and the separated blood plasma was preserved at −70° C. The animals were allowed to be fed after 4 hours of administration. The LC-MS-MS method was employed to measure the concentration of the tested compounds in the blood plasma after the intravenous and intragastric administration to the mice. The linear range of the method was 1-3000 ng/ml. The blood plasma samples were analyzed after protein precipitation with ACN.

[2] = test system: phosphorylated ERK in MIA PaCa2 cells with Kras G12C mutation; experiment: p-ERK HTRF assay for cells (Test Example 2); assay type: cell-based, human
Outline: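 MIA PaCa2 cells (2.5E4/well, seeded overnight) treated 2 h with compound in a 3.16-fold series at 0.1% DMSO. Cells lysed 30 min; p-ERK read by HTRF after 4 h antibody incubation. Inhibition relative to DMSO and blank; IC50 by four-parameter fit.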

[3] = target: KRas G12C (Homo sapiens (Human), UniProt P01116, G12C); experiment: Nucleotide exchange assay (NEA)-HTRF, SOS1 catalyzed displacement of GDP by GTP (Test Example 4); assay type: biochemical
Chain of KRas G12C (P01116-2 other isoform, or with tags, fused parts or gaps G12C): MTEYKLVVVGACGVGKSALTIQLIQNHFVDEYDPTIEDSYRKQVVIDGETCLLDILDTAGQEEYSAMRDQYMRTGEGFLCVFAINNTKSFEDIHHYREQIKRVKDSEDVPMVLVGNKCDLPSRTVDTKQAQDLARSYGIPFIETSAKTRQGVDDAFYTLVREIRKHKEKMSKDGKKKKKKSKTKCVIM
Outline: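 His-tagged KRas G12C preloaded with DY647-GDP (40 nM working solution, with anti-His Tb) was preincubated 15 min with compound at 20 °C. SOS1/GTP (0.2 μM/200 μM working solution) was then added for 2 h in the dark. The HTRF 665/615 nm ratio gave inhibition relative to no-compound control and SOS1/GTP-free T0, with a four-parameter IC50 fit.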

[4] = Homo sapiens, MIA PaCa-2, 2 h, MIA PaCa2 cells, 2 hours with compound, read-out: p-ERK IC50
[5] = MIA PaCa2 cells, 2 hours with compound, read-out: p-ERK IC50

With C=CC(=O)N1CCN2c3c(c(=O)n(-c4c(C)ccnc4C(C)C)c4nc(-c5c(O)cccc5F)c(F)cc34)N(C)C(=O)[C@H]2C1 (single isomer, unassigned) [Compound Z9-2] the bioavailability [1] was 103%, the Cmax [1] was 13200 ng/mL and the Tmax [1] was 1 h. It also gave a pIC50 [2, 4] of 6.66 and a pIC50 [3] of 6.94.

For C=CC(=O)N1C[C@@H]2C(=O)N(C)c3c(c4cc(F)c(-c5c(O)cccc5F)nc4n(-c4c(C)ccnc4C(C)C)c3=O)N2C[C@H]1C (single isomer, unassigned) [Compound Z10-2], the bioavailability [1] was 59.2%, the Cmax [1] was 3960 ng/mL and the Tmax [1] was 1 h. For the same molecule, the pIC50 [2, 5] was 7.47 and the pIC50 [3] was 7.43.

C=CC(=O)N1CCN2c3c(c(=O)n(-c4c(C)ccnc4C(C)C)c4nc(-c5c(O)cccc5F)c(Cl)cc34)N(C)C(=O)[C@H]2C1 (single isomer, unassigned) [Compound Z25-2] showed a bioavailability [1] of 93.5%, a Cmax [1] of 6640 ng/mL and a Tmax [1] of 1.93 h. The pIC50 ([2]; Homo sapiens, MIA PaCa-2, 2 h, read-out: p-ERK IC50, MIA PaCa2 cells, 2 hours with compound) was 7.54 and the pIC50 [3] was 7.60.

[2H]C([2H])([2H])N1C(=O)[C@H]2CN(C(=O)C=C)CCN2c2c1c(=O)n(-c1c(C)ccnc1C(C)C)c1nc(-c3c(O)cccc3F)c(Cl)cc21 (single isomer, unassigned) [Compound Z26-2] gave a pIC50 ([2]; read-out: p-ERK IC50, MIA PaCa2 cells, 2 hours with compound) of 7.21 and a pIC50 [3] of 7.40.

Work on C=CC(=O)N1C[C@@H]2C(=O)N(C)c3c(c4cc(Cl)c(-c5c(O)cccc5F)nc4n(-c4c(C)ccnc4C(C)C)c3=O)N2C[C@H]1C (single isomer, unassigned) [Compound Z27-2] yielded a bioavailability [1] of 96.8%, a Cmax [1] of 3660 ng/mL and a Tmax [1] of 1.74 h. The pIC50 [2, 5] was 7.96 and the pIC50 [3] was 8.05.

In the case of C=CC(=O)N1CCN2c3c(c(=O)n(-c4c(C(C)C)ncnc4C(C)C)c4c(F)c(-c5c(O)cccc5F)c(Cl)cc34)NC(=O)[C@H]2C1 (single isomer, unassigned) [Compound Z37-1], the pIC50 [2, 4] was 7.96 and the pIC50 [3] was 7.96.

With C=CC(=O)N1CCN2c3c(c(=O)n(-c4c(C)ccnc4C(C)C)c4nc(-c5c(O)cccc5F)c(F)cc34)OC[C@H]2C1 [Compound Z1, (4aR)-3-acryloyl-11-fluoro-10-(2-fluoro-6-hydroxyphenyl)-8-(2-isopropyl-4-methylpyridin-3-yl)-1,2,3,4,4a,5-hexahydropyrazino[1′,2′:4,5][1,4]oxazino[2,3-c][1,8]naphthyridin-7(8H)-one] the Cmax [1] was 2600 ng/mL, the Tmax [1] was 0.25 h and the pIC50 [2, 4] was 6.36. For the same molecule, the pIC50 [3] was 6.59.

For C=CC(=O)N1CCN2c3c(c(=O)n(-c4c(C(C)C)ncnc4C(C)C)c4nc(-c5c(O)cccc5F)c(Cl)cc34)N(C)C(=O)[C@H]2C1 [Compound Z48], the bioavailability [1] was 38.1%, the Cmax [1] was 1250 ng/mL and the Tmax [1] was 0.5 h. For the same molecule, the pIC50 [2, 4] was 7.28.
